Data: the NIST ThermoML archive (doi:10.1016/j.jct.2013.12.028)
Numbers after ± are expanded uncertainties.

Test: mn = molality of the nth substance listed, in mol/kg
Conditions: 101.3 kPa, Liquid, Vibrating tube method

C1CCOC1 [tetrahydrofuran] + O
mass density [kg/m3]
Conditions | 278.15 K | 283.15 K | 288.15 K | 293.15 K | 298.15 K | 303.15 K | 308.15 K | 313.15 K | 318.15 K
m1 = 0.06882 | 999.729 ± 0.11 | 999.439 ± 0.11 | 998.826 ± 0.11 | 997.918 ± 0.11 | 996.743 ± 0.11 | 995.331 ± 0.11 | 993.701 ± 0.11 | 991.864 ± 0.11 | 989.851 ± 0.11
m1 = 0.1028 | 999.619 ± 0.11 | 999.317 ± 0.11 | 998.697 ± 0.11 | 997.78 ± 0.11 | 996.596 ± 0.11 | 995.178 ± 0.11 | 993.538 ± 0.11 | 991.694 ± 0.11 | 989.672 ± 0.11
m1 = 0.2158 | 999.282 ± 0.11 | 998.938 ± 0.11 | 998.289 ± 0.11 | 997.343 ± 0.11 | 996.13 ± 0.11 | 994.687 ± 0.11 | 993.021 ± 0.11 | 991.146 ± 0.11 | 989.097 ± 0.11
m1 = 0.3098 | 999.036 ± 0.11 | 998.655 ± 0.11 | 997.977 ± 0.11 | 997.003 ± 0.11 | 995.764 ± 0.11 | 994.293 ± 0.11 | 992.601 ± 0.11 | 990.703 ± 0.11 | 988.631 ± 0.11
m1 = 0.4199 | 998.781 ± 0.11 | 998.36 ± 0.11 | 997.637 ± 0.11 | 996.629 ± 0.11 | 995.359 ± 0.11 | 993.859 ± 0.11 | 992.137 ± 0.11 | 990.208 ± 0.11 | 988.102 ± 0.11
m1 = 0.5704 | 998.489 ± 0.11 | 997.999 ± 0.11 | 997.225 ± 0.11 | 996.162 ± 0.11 | 994.84 ± 0.11 | 993.293 ± 0.11 | 991.526 ± 0.11 | 989.552 ± 0.11 | 987.402 ± 0.11
m1 = 0.7194 | 998.255 ± 0.11 | 997.698 ± 0.11 | 996.863 ± 0.11 | 995.741 ± 0.11 | 994.361 ± 0.11 | 992.771 ± 0.11 | 990.96 ± 0.11 | 988.935 ± 0.11 | 986.735 ± 0.11
m1 = 0.8767 | 998.059 ± 0.11 | 997.427 ± 0.11 | 996.519 ± 0.11 | 995.333 ± 0.11 | 993.894 ± 0.11 | 992.247 ± 0.11 | 990.382 ± 0.11 | 988.304 ± 0.11 | 986.049 ± 0.11
m1 = 1.04 | 997.903 ± 0.11 | 997.18 ± 0.11 | 996.19 ± 0.11 | 994.935 ± 0.11 | 993.435 ± 0.11 | 991.725 ± 0.11 | 989.802 ± 0.11 | 987.671 ± 0.11 | 985.363 ± 0.11
m1 = 1.174 | 997.793 ± 0.11 | 997.013 ± 0.11 | 995.964 ± 0.11 | 994.643 ± 0.11 | 993.087 ± 0.11 | 991.324 ± 0.11 | 989.348 ± 0.11 | 987.162 ± 0.11 | 984.803 ± 0.11
m1 = 1.262 | 997.732 ± 0.11 | 996.903 ± 0.11 | 995.814 ± 0.11 | 994.456 ± 0.11 | 992.856 ± 0.11 | 991.065 ± 0.11 | 989.06 ± 0.11 | 986.838 ± 0.11 | 984.443 ± 0.11
m1 = 1.406 | 997.65 ± 0.11 | 996.744 ± 0.11 | 995.581 ± 0.11 | 994.16 ± 0.11 | 992.503 ± 0.11 | 990.648 ± 0.11 | 988.583 ± 0.11 | 986.311 ± 0.11 | 983.864 ± 0.11
m1 = 1.576 | 997.559 ± 0.11 | 996.552 ± 0.11 | 995.314 ± 0.11 | 993.821 ± 0.11 | 992.084 ± 0.11 | 990.16 ± 0.11 | 988.025 ± 0.11 | 985.688 ± 0.11 | 983.169 ± 0.11
